Measured values from PubChem BioAssay (NCI).
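Growth conditions: 96-well plates. Treatment: test compound, 48 hours, 5 concentrations. Analysis: linear interpolation between bracketing concentrations; unreached endpoints set to highest concentration. GI50 marks 50% less growth. Definition used: TGI = concentration required for complete inhibition of growth.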

Legend:
Assay in all cases: DTP human tumour cell line panel, 48 h
[1] = tested on: SK-OV-3 ovarian
[2] = tested on: T-47D breast
[3] = tested on: LOX IMVI melanoma
[4] = tested on: HCC-2998 colon
[5] = tested on: A549 NSCLC
[6] = tested on: HT29 colon
[7] = tested on: OVCAR-4 ovarian
[8] = tested on: RPMI-8226 leukemia
[9] = tested on: SK-MEL-5 melanoma
[10] = tested on: U251 CNS
[11] = tested on: SK-MEL-2 melanoma
[12] = tested on: MALME-3M melanoma
[13] = tested on: TK-10 renal
[14] = tested on: SR leukemia
[15] = tested on: NCI-H23 lung
[16] = tested on: OVCAR-5 ovarian
[17] = tested on: SW-620 colon
[18] = tested on: EKVX NSCLC
[19] = tested on: NCI-H226 lung
[20] = tested on: DU-145 prostate
[21] = tested on: NCI/ADR-RES ovarian
[22] = tested on: COLO 205 colon
[23] = tested on: MDA-MB-231 breast
[24] = tested on: HL-60(TB) leukemia
[25] = tested on: 786-0 renal
[26] = tested on: HS 578T breast
[27] = tested on: ACHN renal
[28] = tested on: SK-MEL-28 melanoma
[29] = tested on: NCI-H460 lung
[30] = tested on: BT-549 breast
[31] = tested on: CCRF-CEM leukemia
[32] = tested on: SF-268 CNS
[33] = tested on: K-562 leukemia
[34] = tested on: PC-3 prostate
[35] = tested on: CAKI-1 renal
[36] = tested on: HOP-92 NSCLC
[37] = tested on: KM12 colon
[38] = tested on: HOP-62 NSCLC
[39] = tested on: M14 melanoma
[40] = tested on: SF-539 CNS
[41] = tested on: A498 renal
[42] = tested on: MDA-MB-435
[43] = tested on: OVCAR-8 ovarian
[44] = tested on: IGROV1 ovarian
[45] = tested on: SNB-19 CNS
[46] = tested on: SN12C renal
[47] = tested on: HCT-116 colon
[48] = tested on: MDA-N
[49] = tested on: HCT-15 colon
[50] = tested on: OVCAR-3 ovarian
[51] = tested on: NCI-H522 lung
[52] = tested on: SNB-75 CNS
[53] = tested on: MCF7 breast
[54] = tested on: MOLT-4 leukemia
[55] = tested on: UACC-257 melanoma
[56] = tested on: SF-295 CNS
[57] = tested on: UO-31 renal
[58] = tested on: RXF 393 renal
[59] = tested on: UACC-62 melanoma

## C=C1[C@@H](O)C[C@@]23CC[C@@H]4[C@@]5(C)CC[C@@H](OC(C)=O)C(C)(C)[C@@H]5C[C@@H](OC5OC(COC(C)=O)C(O)C(O)C5O)[C@@]4(C)C2=CC[C@H]3[C@H]1C (some centres undefined)
[1]
  TGI: 26.1 µM
[2]
  TGI: 19.2 µM
[3]
  TGI: 10.9 µM
[4]
  TGI: 3.88 µM
[5]
  TGI: 16.8 µM
[6]
  TGI: 4.75 µM
[7]
  TGI: 21 µM
[8]
  TGI: 8.01 µM
[9]
  TGI: 12.3 µM
[10]
  TGI: 12.5 µM
[11]
  TGI: 7.39 µM
[12]
  TGI: 23.9 µM
[13]
  TGI: 21 µM
[14]
  TGI: 5.07 µM
[15]
  TGI: 26.5 µM
[16]
  TGI: 7.08 µM
[17]
  TGI: 21.7 µM
[18]
  TGI: 25.9 µM
[19]
  TGI: 17.4 µM
[20]
  TGI: 22.6 µM
[21]
  TGI: 35.3 µM
[22]
  TGI: 4.36 µM
[23]
  TGI: 21.4 µM
[24]
  TGI: 4.86 µM
[25]
  TGI: 18.9 µM
[26]
  TGI: 22.4 µM
[27]
  TGI: 21.9 µM
[28]
  TGI: 19.8 µM
[29]
  TGI: 17.2 µM
[30]
  TGI: 21.4 µM
[31]
  TGI: 9.82 µM
[32]
  TGI: 19 µM
[33]
  TGI: 10.6 µM
[34]
  TGI: 13.9 µM
[35]
  TGI: 26.7 µM
[36]
  TGI: 20.5 µM
[37]
  TGI: 8.16 µM
[38]
  TGI: 25.8 µM
[39]
  TGI: 16.4 µM
[40]
  TGI: 24.5 µM
[41]
  TGI: 23.8 µM
[42]
  TGI: 15.3 µM
[43]
  TGI: 21.8 µM
[44]
  TGI: 15 µM
[45]
  TGI: 17.5 µM
[46]
  TGI: 21 µM
[47]
  TGI: 10.7 µM
[48]
  TGI: 17.5 µM
[49]
  TGI: 27.8 µM
[50]
  TGI: 16.2 µM
[51]
  TGI: 21.1 µM
[52]
  TGI: 16.1 µM
[53]
  TGI: 7.77 µM
[54]
  TGI: 8.32 µM
[55]
  TGI: 26 µM
[56]
  TGI: 14.8 µM
[57]
  TGI: 28 µM
[58]
  TGI: 18.7 µM
[59]
  TGI: 20.5 µM

## CN(C)c1nc(=NCc2ccncc2)ss1
[1]
  TGI: > 64.6 µM
[2]
  TGI: > 51.8 µM
[3]
  TGI: 31.1 µM
[4]
  TGI: > 100 µM
[5]
  GI50: > 100 µM
  TGI: > 100 µM
[6]
  TGI: 38.5 µM
[7]
  TGI: 39.2 µM
[8]
  TGI: 53.1 µM
[9]
  GI50: > 100 µM
  TGI: > 100 µM
[10]
  TGI: 32.1 µM
[12]
  TGI: > 31.6 µM
[13]
  TGI: > 100 µM
[14]
  GI50: 19 µM
  TGI: 44.6 µM
[15]
  TGI: 38.2 µM
[16]
  TGI: 54.4 µM
[17]
  TGI: 50.7 µM
[18]
  TGI: > 100 µM
[19]
  TGI: > 100 µM
[20]
  GI50: > 100 µM
  TGI: > 100 µM
[21]
  TGI: > 100 µM
[22]
  TGI: > 100 µM
[23]
  TGI: > 54 µM
[24]
  GI50: 14.2 µM
  TGI: 47 µM
[25]
  TGI: 31.5 µM
[26]
  TGI: 70.3 µM
[27]
  TGI: 18.7 µM
[28]
  TGI: > 93.9 µM
[29]
  TGI: > 100 µM
[30]
  TGI: 44 µM
[31]
  TGI: 49.6 µM
[32]
  TGI: > 100 µM
[33]
  TGI: 47.7 µM
[34]
  TGI: > 63.4 µM
[35]
  TGI: > 56.3 µM
[36]
  TGI: > 100 µM
[37]
  GI50: > 100 µM
  TGI: > 100 µM
[38]
  GI50: > 100 µM
  TGI: > 100 µM
[39]
  TGI: 36.1 µM
[40]
  TGI: > 67 µM
[41]
  TGI: > 100 µM
[42]
  TGI: > 100 µM
[43]
  TGI: 34.6 µM
[44]
  TGI: > 100 µM
[45]
  TGI: > 100 µM
[46]
  TGI: 36 µM
[47]
  TGI: 40.7 µM
[48]
  TGI: > 31.6 µM
[49]
  TGI: > 100 µM
[50]
  TGI: > 82.3 µM
[51]
  TGI: > 100 µM
[52]
  TGI: 34.7 µM
[53]
  TGI: > 100 µM
[54]
  TGI: 51.1 µM
[55]
  TGI: > 61.2 µM
[56]
  TGI: > 100 µM
[57]
  TGI: > 80.9 µM
[58]
  TGI: 92.7 µM
[59]
  TGI: > 48.1 µM
